We go through 12 molecules from patent US9969715B2, “Compounds useful for treating cancer” (ABIVAX, priority 2012, dated 2018).

For data set [1], the system named is MDA-MB231-luc-D3H2LN cells. Nature of the data set: Toxicity assay under normal cell culture conditions (MTS), MDA cells. The data set is classed as cell-based, human. Particulars: for toxicity on MDA-MB231 compared to comparative compound (in words): 1 vs C88 (112), 3 vs 583, 4 vs 585; for MDA tox: 50% tox. at (μM) av: MDA-MB231-luc-D3H2LN cells, MEM+10% FBS, 72 h incubation, MTS. The method, boiled down: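 Under normal culture conditions (MEM with 10% FBS), MDA-MB231-luc-D3H2LN cells (2000/well) were exposed to compound concentration series for 72 h. Viability measured by MTS assay. Value is the concentration giving 50% toxicity.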

Data set [2] relates to human PBMC. Nature of the data set: Toxicity assay under normal cell culture conditions (MTS), PBMC. The conditions noted are these: for toxicity on PBMC compared to comparative compound (in words): 1 vs C88 (112), 3 vs 583, 4 vs 585; for PBMC tox.: 50% tox. at (μM) av: human PBMC, RPMI+10% FBS+IL-2, 72 h incubation, MTS. Type of data set: cell-based. The gist of the method: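 Human PBMC (75000/well) in RPMI + 10% FBS + IL-2 were exposed to compounds for 72 h, with viability read by MTS. Concentration-response curves gave the concentration producing 50% toxicity.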

Data set [3] has as its system MDA-MB231-luc-D3H2LN cells. Nature of the data set: Invasion of MDA-MB231-D3H2LN cells into collagen (example 15 = procedure 2, 48 h drug pre-incubation). The data set is classed as cell-based. The conditions noted are these: for invasiveness inhibition compared to comparative compound (in words): 1 vs C88 (112), 4 vs 585. The method, boiled down:
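Cells embedded at the bottom of collagen gels were pre-treated 48 h with compound in 0.025% FBS, then stimulated with 5% FBS for 24 h at 37° C. Nuclei were imaged at 0, 25 and 50 µm to give mean invasion distance, with MTS viability also measured. Value is the concentration giving 50% of the effect of 10 µM Y-27632.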

For data set [4], the system named is MDA-MB231-luc-D3H2LN cells. Nature of the data set: Viability (MTS) assay on the cells in collagen under invasion assay conditions. The data set is classed as cell-based, human. Particulars: loss of viability at the concentration giving 0.5 × effect of 10 μM Y-27632, invasion assay conditions. The method, boiled down: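 Run on cells embedded in collagen after a further 24 h, on serum-starved cells and in parallel on cells in 10% FBS. MTS reagent 3–4 h at 37 °C, absorbance at 490 nm; background-corrected signals expressed as % of untreated control.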

The target of data set [5] is T1, hERG channel (Homo sapiens, UniProt Q12809).
T1 construct: host or cells: HEK293
Nature of the data set: hERG channel inhibition (electrophysiology, hERG-transfected HEK293 cells). Type of data set: cell-based. Particulars: for % hERG inhibition in transfected HEK (n = 3) at 1 μM av: 1 μM compound; for % hERG inhibition in transfected HEK (n = 3) at 10 μM av: 10 μM compound; for hERG inhibition compared to comparative compound (in words): 1 vs C88 (112), 3 vs 583, 4 vs 585. How it is done:
Performed by Porsolt & Partners (Z. A. de Glatigné, 53940 Le Genest-Saint-Isle, France). Briefly, each 3 hERG-transfected HEK293 cells were superfused with the compounds at 1 and 10 μM, and the hERG channel current was measured by electrophysiology, as described by Crumb et al., J. Pharmacol. Exp. Ther. 2000.

[6] abbreviates: concentration giving 50% of the anti-invasive effect of 10 μM Y-27632, 48 h pre-incubation, 24 h with 5% FBS, read-out: MDA: Inhib. of invasion: 0.5 × eff. of 10 μM Y-27632 at (μM) av.

Like-named read-outs stand apart in the source and are kept apart here. Where only a bound is given, the exact number is not on record here.

T1 sequence (Q12809 whole entry): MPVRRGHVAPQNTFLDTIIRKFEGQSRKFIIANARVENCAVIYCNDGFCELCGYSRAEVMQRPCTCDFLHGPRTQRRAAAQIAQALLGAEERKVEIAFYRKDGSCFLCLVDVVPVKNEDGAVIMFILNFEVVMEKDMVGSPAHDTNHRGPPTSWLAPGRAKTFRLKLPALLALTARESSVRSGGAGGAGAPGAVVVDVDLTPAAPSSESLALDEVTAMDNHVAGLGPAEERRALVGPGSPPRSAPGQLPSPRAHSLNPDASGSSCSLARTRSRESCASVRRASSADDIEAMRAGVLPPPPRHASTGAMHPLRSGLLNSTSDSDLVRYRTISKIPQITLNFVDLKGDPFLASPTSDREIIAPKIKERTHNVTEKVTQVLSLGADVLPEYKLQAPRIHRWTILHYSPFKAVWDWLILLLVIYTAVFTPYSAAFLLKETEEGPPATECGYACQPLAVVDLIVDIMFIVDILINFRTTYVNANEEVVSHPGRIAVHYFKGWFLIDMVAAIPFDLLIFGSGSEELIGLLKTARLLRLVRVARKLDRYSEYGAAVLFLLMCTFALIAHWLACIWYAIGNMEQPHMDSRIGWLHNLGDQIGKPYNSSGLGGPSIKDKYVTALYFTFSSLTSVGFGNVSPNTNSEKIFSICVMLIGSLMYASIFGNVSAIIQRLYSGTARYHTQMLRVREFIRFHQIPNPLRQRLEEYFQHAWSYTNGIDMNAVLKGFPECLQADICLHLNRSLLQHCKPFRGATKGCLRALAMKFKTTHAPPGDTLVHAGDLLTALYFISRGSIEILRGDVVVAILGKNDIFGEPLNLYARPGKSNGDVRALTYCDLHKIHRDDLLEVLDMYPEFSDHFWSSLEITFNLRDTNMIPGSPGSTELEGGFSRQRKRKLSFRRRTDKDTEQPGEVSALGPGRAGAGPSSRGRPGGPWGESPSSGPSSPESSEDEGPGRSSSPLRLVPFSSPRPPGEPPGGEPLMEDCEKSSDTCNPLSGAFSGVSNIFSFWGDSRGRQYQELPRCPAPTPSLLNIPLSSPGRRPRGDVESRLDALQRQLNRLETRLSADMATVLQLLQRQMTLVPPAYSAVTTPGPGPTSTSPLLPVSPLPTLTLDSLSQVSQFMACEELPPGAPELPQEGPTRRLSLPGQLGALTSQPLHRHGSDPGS

With `CCN(CC)CCCNC(=O)c1cccc(Nc2cccc(C(=O)Nc3ccncc3)c2)c1` [Compound 1, N-(3-(diethylamino)propyl)-3-((3-(pyridin-4-ylcarbamoyl)phenyl)amino)benzamide], in data set [1], the “toxicity on MDA-MB231 compared to comparative compound (in words)” value is listed as “less toxic” and the “MDA tox: 50% tox. at (μM) av” value was 46 µM. Moreover, in data set [2], the “toxicity on PBMC compared to comparative compound (in words)” value was “less toxic” and the “PBMC tox.: 50% tox. at (μM) av” value stood at 51 µM. Further, in data set [3], the “invasiveness inhibition compared to comparative compound (in words)” value is given as “more potent”. In addition, the IC50 in data set [3] (Homo sapiens, procedure 2, second set of experiments, read-out: Invasion Av.: concentration of the compound necessary to reach 50% of the inhibition effect compared to 10 μM Y-27632) is 0.13 µM. In addition, the IC50 in data set [3] (setting [6]) was found to be 0.13 µM. Besides, the “anti-invasive activity (in words)” value in data set [3] (second set of experiments, procedure 2 (example 15)) was “anti-invasive activity is detected”. Besides, the “(+ MDA tox. under these cond.) % tox” value in data set [4] was below 10%. Besides, in data set [5], the “% hERG inhibition in transfected HEK (n = 3) at 1 μM av” value (shortened to “% hERG inhibition … at 1 μM av”) worked out at 13%, the “% hERG inhibition in transfected HEK (n = 3) at 10 μM av” value (“% hERG inhibition … at 10 μM av” below) was determined as 47% and the “hERG inhibition compared to comparative compound (in words)” value is on record as “less hERG inhibition”.

As to `O=C(NCCCN1CCOCC1)c1cccc(Nc2cccc(C(=O)Nc3ccncc3)c2)c1` [Compound 3, N-(3-morpholinopropyl)-3-((3-(pyridin-4-ylcarbamoyl)phenyl)amino)benzamide], in data set [1], the “toxicity on MDA-MB231 compared to comparative compound (in words)” value is reported as “less toxic” and the “MDA tox: 50% tox. at (μM) av” value stood at 51 µM. Further, in data set [2], the “toxicity on PBMC compared to comparative compound (in words)” value was “less toxic” and the “PBMC tox.: 50% tox. at (μM) av” value worked out at 51 µM. In addition, the IC50 in data set [3] (setting [6]) stood at 0.29 µM. For the same molecule, the “(+ MDA tox. under these cond.) % tox” value in data set [4] is below 10%. Moreover, in data set [5], the “% hERG inhibition … at 1 μM av” value turned out to be 14%, the “% hERG inhibition … at 10 μM av” value amounted to 54% and the “hERG inhibition compared to comparative compound (in words)” value was “less hERG inhibition”.

Take `O=C(NCCCN1CCCC1)c1cccc(Nc2cccc(C(=O)Nc3ccncc3)c2)c1` [Compound 4, N-(pyridin-4-yl)-3-((3-((3-(pyrrolidin-1-yl)propyl)carbamoyl)phenyl)amino)benzamide]: in data set [1], the “toxicity on MDA-MB231 compared to comparative compound (in words)” value is given as “less toxic” and the “MDA tox: 50% tox. at (μM) av” value is 54 µM. In data set [2], the “toxicity on PBMC compared to comparative compound (in words)” value is on record as “less toxic” and the “PBMC tox.: 50% tox. at (μM) av” value turned out to be 42 µM. In addition, the “invasiveness inhibition compared to comparative compound (in words)” value in data set [3] is “more potent”. For the same molecule, the IC50 in data set [3] (setting [6]) was 0.21 µM. In addition, in data set [4], the “(+ MDA tox. under these cond.) % tox” value was below 10%. In addition, in data set [5], the “% hERG inhibition … at 1 μM av” value is 6%, the “% hERG inhibition … at 10 μM av” value is recorded as 59% and the “hERG inhibition compared to comparative compound (in words)” value was “less hERG inhibition”.

As to `CCN(CC)CCCNS(=O)(=O)c1cccc(Nc2cccc(C(=O)Nc3ccncc3)c2)c1` [Compound 5, 3-((3-(N-(3-(diethylamino)propyl)sulfamoyl)phenyl)amino)-N-(pyridin-4-yl)benzamide], in data set [1], the “MDA tox: 50% tox. at (μM) av” value is 68 µM. In data set [2], the “PBMC tox.: 50% tox. at (μM) av” value was found to be 74 µM. Also, the IC50 in data set [3] (setting [6]) came to 1.31 µM. Also, the “(+ MDA tox. under these cond.) % tox” value in data set [4] was below 10%. Also, in data set [5], the “% hERG inhibition … at 1 μM av” value is on record as 1% and the “% hERG inhibition … at 10 μM av” value is recorded as 29%.

Regarding `O=C(Nc1ccncc1)c1cccc(Nc2cccc(S(=O)(=O)NCCCN3CCCCC3)c2)c1` [Compound 9, 3-((3-(N-(3-(piperidin-1-yl)propyl)sulfamoyl)phenyl)amino)-N-(pyridin-4-yl)benzamide], the “MDA tox: 50% tox. at (μM) av” value in data set [1] is 44 µM. The “PBMC tox.: 50% tox. at (μM) av” value in data set [2] came out at 36 µM. In data set [3] (setting [6]), the IC50 was determined as 0.28 µM. For the same molecule, the “(+ MDA tox. under these cond.) % tox” value in data set [4] was below 10%. In addition, in data set [5], the “% hERG inhibition … at 1 μM av” value stood at 5% and the “% hERG inhibition … at 10 μM av” value is reported as 50%.

`CCN(CC)CCCNC(=O)c1cccc(Nc2cccc(C(=O)Nc3ccccn3)c2)c1` [Compound 11, N-(3-(diethylamino)propyl)-3-((3-(pyridin-2-ylcarbamoyl)phenyl)amino)benzamide]: the “MDA tox: 50% tox. at (μM) av” value in data set [1] was found to be 44 µM. Moreover, in data set [2], the “PBMC tox.: 50% tox. at (μM) av” value is 47 µM. Moreover, the IC50 in data set [3] (setting [6]) is above 2 µM. Moreover, in data set [5], the “% hERG inhibition … at 1 μM av” value amounted to 64% and the “% hERG inhibition … at 10 μM av” value worked out at 87%.

`O=C(Nc1ccncc1)c1cccc(Nc2cccc(S(=O)(=O)NCCCN3CCOCC3)c2)c1` [Compound 12, 3-((3-(N-(3-morpholinopropyl)sulfamoyl)phenyl)amino)-N-(pyridin-4-yl)benzamide]: in data set [1], the “MDA tox: 50% tox. at (μM) av” value was 60 µM. In addition, the “PBMC tox.: 50% tox. at (μM) av” value in data set [2] was 54 µM. Moreover, the IC50 in data set [3] (setting [6]) was determined as 0.46 µM. In addition, the “(+ MDA tox. under these cond.) % tox” value in data set [4] is recorded as below 10%. Moreover, in data set [5], the “% hERG inhibition … at 1 μM av” value came to 11% and the “% hERG inhibition … at 10 μM av” value is on record as 55%.

With `CCN(CC)CCCNC(=O)c1cccc(Nc2cccc(C(=O)Nc3ccncc3)c2)n1` [Compound 35, N-(3-(diethylamino)propyl)-6-((3-(pyridin-4-ylcarbamoyl)phenyl)amino)picolinamide], the “MDA tox: 50% tox. at (μM) av” value in data set [1] worked out at 59 µM. Also, the “PBMC tox.: 50% tox. at (μM) av” value in data set [2] amounted to 128 µM. Besides, in data set [3] (setting [6]), the IC50 was found to be 0.55 µM. Moreover, the “(+ MDA tox. under these cond.) % tox” value in data set [4] is below 10%. In data set [5], the “% hERG inhibition … at 1 μM av” value is given as 4% and the “% hERG inhibition … at 10 μM av” value turned out to be 30%.

With `CCN(CC)CCCNC(=O)c1cccc(Nc2cccc(C(=O)Nc3ccncn3)c2)n1` [Compound 40, N-(3-(diethylamino)propyl)-6-((3-(pyrimidin-4-ylcarbamoyl)phenyl)amino)picolinamide], the “MDA tox: 50% tox. at (μM) av” value in data set [1] was 73 µM. The “PBMC tox.: 50% tox. at (μM) av” value in data set [2] is above 100 µM. In addition, the IC50 in data set [3] (setting [6]) amounted to 0.75 µM. Moreover, the “(+ MDA tox. under these cond.) % tox” value in data set [4] is on record as below 10%. Also, in data set [5], the “% hERG inhibition … at 1 μM av” value is recorded as 26% and the “% hERG inhibition … at 10 μM av” value worked out at 59%.

For `CCN(CC)CCCNC(=O)c1ccnc(Nc2cccc(C(=O)Nc3ccncn3)c2)c1` [Compound 41, N-(3-(diethylamino)propyl)-2-((3-(pyrimidin-4-ylcarbamoyl)phenyl)amino)isonicotinamide], the “MDA tox: 50% tox. at (μM) av” value in data set [1] was at least 80 µM. Further, the “PBMC tox.: 50% tox. at (μM) av” value in data set [2] is above 100 µM. The IC50 in data set [3] (setting [6]) amounted to 1.5 µM. Further, the “(+ MDA tox. under these cond.) % tox” value in data set [4] is below 10%. For the same molecule, in data set [5], the “% hERG inhibition … at 1 μM av” value turned out to be 8% and the “% hERG inhibition … at 10 μM av” value worked out at 53%.

Turning to `O=C(NCCCN1CCCC1)c1cccc(Nc2cc(C(=O)Nc3ccncc3)ccn2)c1` [Compound 50, N-(pyridin-4-yl)-2-((3-((3-(pyrrolidin-1-yl)propyl)carbamoyl)phenyl)amino) isonicotinamide], in data set [1], the “MDA tox: 50% tox. at (μM) av” value was at least 100 µM. In addition, the “PBMC tox.: 50% tox. at (μM) av” value in data set [2] is above 100 µM. Besides, in data set [3] (setting [6]), the IC50 stood at 1.88 µM. In addition, the “(+ MDA tox. under these cond.) % tox” value in data set [4] was below 10%.

As to `CN1CCN(CCCNC(=O)c2cccc(Nc3cc(C(=O)Nc4ccncc4)ccn3)c2)CC1` [Compound 51, 2-((3-((3-(4-methylpiperazin-1-yl)propyl)carbamoyl)phenyl)amino)-N-(pyridin-4-yl)isonicotinamide], in data set [1], the “MDA tox: 50% tox. at (μM) av” value is at least 100 µM. In data set [2], the “PBMC tox.: 50% tox. at (μM) av” value is above 100 µM. In addition, the IC50 in data set [3] (setting [6]) was found to be 0.3 µM. The “(+ MDA tox. under these cond.) % tox” value in data set [4] is reported as below 10%.
